Measured values as given in patent publication US20180296683A1, “COMPOSITIONS AND METHODS FOR DISASSEMBLING AMYLOID FIBRILS” (The Board of Trustees of the University of Illinois, priority 2017, published 2018).

Assays:
Format in all cases: biochemical
preformed Aβ40 fibrils [1] = target: T1, preformed Aβ40 fibrils (Homo sapiens, UniProt P05067); experiment: ThT fluorescence assay of Aβ40 fibril disassembly; settings: 15 μM Aβ40, PBS pH 7.4, 37° C., 3 days
T1 construct: Amyloid protein (Aβ40) was purchased from GL Biochem Ltd. (Shanghai, China); purchased GL Biochem Ltd. (Shanghai, China)
Protocol: ThT fluorescence assays were conducted in 96-well black plate (Thermo Scientific NUNC, catalog NO. 265301) at 37° C. with continuous shaking (567 rpm) in a BioTek Hybrid H1 plate reader. ThT fluorescence was recorded with 10 minutes reading intervals and 5 s shaking before first read (442 nm excitation, 482 nm emission). All samples were run in quadruple or more. At least three independent experiments were carried out for each ThT assay. Each well contained 10 mM PBS buffer solution (pH 7.4) and 20 μM ThT in a total volume of 200 μL. Aβ40 (15 μM, 1.0 equiv), iAβ5, control polymer 5, and mP-iAβ5 conjugates 4 of different molecular weights were added as needed. The concentrations of added samples were calculated based on Aβ40 (15 μM, 1.0 equiv).
Preparation of Buffered ThT Solution. The ThT solution in 20 mM PBS was freshly prepared before use. […] The concentration of the above solution was determined by UV-Vis at 412 nm (ε=36000 M^−1 cm^−1). Based on the determined concentration of the ThT solution, ultrapure water and 100 mM PBS were further added to dilute the ThT solution to 40 μM in 20 mM PBS, pH 7.4 […]
To each well of 96-well plate, the buffered ThT solution (40 μM, 100 μL) and ultrapure water (80 μL) were added and mixed. […] The samples containing mature fibrils of Aβ40 and modulators were coincubated for another 3 days in plate reader. The fluorescence was monitored by ThT assays.

Aβ40 = target: T2, Aβ40 (Homo sapiens, UniProt P05067); experiment: Circular dichroism of Aβ40 secondary structure with fibril breakers; settings: iAβ5 910 μM, 60.7 equiv; Aβ40 15 μM; 3 days
T2 construct: Amyloid protein (Aβ40) was purchased from GL Biochem Ltd. (Shanghai, China); purchased GL Biochem Ltd. (Shanghai, China)
Protocol: We used circular dichroism studies to further confirm the secondary structures of disassembled Aβ40 aggregates in the presence of mP-iAβ5 conjugates, PHPMA, or iAβ5. Aβ40 solutions were incubated alone for 24 h to form fibrils. […] As Aβ40 continues to aggregate, the negative peak at 198 nm was converted to the positive peak around 194 nm and a negative peak around 217 nm.
Fibril breakers (mP-iAβ5 conjugates, PHPMA, or iAβ5) were added to preformed Aβ40 fibrils after 24 h and coincubated for 3 days before the structure characterization by circular dichroism.
Circular Dichroism (CD) spectroscopy. CD spectra of Aβ40 fibril solution incubated without or with fibril breakers (mP-iAβ5 conjugates, PHPMA, or iAβ5) were recorded in a JASCO J-815 Spectrometer (JASCO Co., Tokyo, Japan), using a quartz cuvette (1 mm path length). […] The spectra were taken as the average of three accumulations from 190 and 260 nm at a speed of 50 nm/min. All of the samples were incubated at 37° C. in 10 mM phosphate buffer solution (PBS) with a continuous agitation speed of 567 rpm. Spectra were calibrated by subtracting the buffer or sample solution baseline.

preformed Aβ40 fibrils [2] = target: T1, preformed Aβ40 fibrils; experiment: Control incubations with preformed Aβ40 fibrils assessed by AFM and DLS; settings: 3 days of incubation
Protocol: To evaluate the ability of mP-iAβ5 conjugates to disassemble amyloid fibrils, we conducted experiments in which mP-iAβ5 conjugates were incubated with preformed Aβ40 fibrils. Freshly prepared Aβ40 (15 μM) solutions were preincubated at 37° C. for 24 h, which is sufficiently long for mature fibrils to grow, as evidenced by AFM images and ThT fluorescence assays (FIG. 8). The preformed Aβ40 fibrils solution was then coincubated with 1.0 equiv of mP-iAβ5 conjugates of different molecular weights, and the morphology transformation of the fibril structures was monitored at 37° C. for 3 days by DLS, AFM imaging, and ThT fluorescence (we define an equiv of mP-iAβ5 as the molar ratio of polymer to Aβ40).
The molecular weight of mP-iAβ5 conjugate that completely disassembles preformed Aβ40 fibrils is 166 kDa. […] The disassembly of preformed fibrils by mP-iAβ5 conjugates was also quantitatively analyzed by DLS in solution phase. In agreement with AFM images, DLS results confirmed that all Aβ40 fibrils were transformed into dispersible sub-100 nm structures, and 0% of fibrils remained after 3 days of incubation (FIG. 2i). […] To investigate the effect of the PHPMA polymer backbone without iAβ5 moieties on Aβ40 disassembly, we incubated preformed Aβ40 fibrils in the presence of 1.0 equiv of 166 kDa PHPMA with and without 60.7 equiv of iAβ5 for 3 days.
Atomic Force Microscopy (AFM). Samples for AFM studies were taken directly from the ThT assays, and 10 μL of each sample solution was loaded on freshly cleaved mica surface (Electron Microscopy Sciences, catalog NO. 71856-01). Samples were incubated for 5 minutes and rinsed with 5 drops of molecular biology grade water. The mica surface was blow-dried under nitrogen. AFM images were obtained on a MultiMode V (Bruker, Santa Barbara, USA) microscope in tapping mode. Ultrasharp silicon cantilevers (SCANASYST-ATR, Bruker) were used. All of the images were collected at a scan rate of 1 Hz and scan lines of 512.
Dynamic Light Scattering (DLS). Samples for DLS studies were prepared at the same condition as in ThT assays without adding ThT dye molecules. The DLS studies were carried out using a particle sizer NICOMP 380 ZLS.

T1 sequence (P05067 672-711 limits assumed): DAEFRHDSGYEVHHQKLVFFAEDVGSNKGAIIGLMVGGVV
T2 sequence (P05067 672-711 limits assumed): as above

## LPFFD [iAβ5]
Preformed Aβ40 fibrils [1]
  ThT intensity during coincubation with Aβ40 fibrils: not accompanied by the decreased ThT intensity
Aβ40
  secondary structure by CD after coincubation with preformed Aβ40 fibrils: remain β-sheet structures
Preformed Aβ40 fibrils [2]; 8.1 equiv of iAβ5 per Aβ40
  effect on preformed fibrils according to AFM and DLS: remained unchanged
Preformed Aβ40 fibrils [2]; 16.7 equiv of iAβ5 per Aβ40
  effect on preformed fibrils according to AFM and DLS: remained unchanged
Preformed Aβ40 fibrils [2]; 32.5 equiv of iAβ5 per Aβ40
  effect on preformed fibrils according to AFM and DLS: remained unchanged
Preformed Aβ40 fibrils [2]; 60.7 equiv of iAβ5 per Aβ40
  effect on preformed fibrils according to AFM and DLS: remained unchanged
Preformed Aβ40 fibrils [2]; 81.3 equiv of iAβ5 per Aβ40
  effect on preformed fibrils according to AFM and DLS: remained unchanged
